# Test results published in patent publication US8258306B2, “Glycine transporter-1 inhibitors” (Amgen Inc., priority 2007, dated 2012).
# Structures can show the parent of a compound that is named as a salt.
# Molecular target: T1, human glycine transporter type 1 (Gly-T1) (Homo sapiens, UniProt P48067)
# T1 construct: JAR) cells endogenously expressing human glycine transporter type 1 (Gly-T1); endogenous in cells; host or cells: JAR human placental choriocarcinoma cells
# T1 sequence (P48067 1-706): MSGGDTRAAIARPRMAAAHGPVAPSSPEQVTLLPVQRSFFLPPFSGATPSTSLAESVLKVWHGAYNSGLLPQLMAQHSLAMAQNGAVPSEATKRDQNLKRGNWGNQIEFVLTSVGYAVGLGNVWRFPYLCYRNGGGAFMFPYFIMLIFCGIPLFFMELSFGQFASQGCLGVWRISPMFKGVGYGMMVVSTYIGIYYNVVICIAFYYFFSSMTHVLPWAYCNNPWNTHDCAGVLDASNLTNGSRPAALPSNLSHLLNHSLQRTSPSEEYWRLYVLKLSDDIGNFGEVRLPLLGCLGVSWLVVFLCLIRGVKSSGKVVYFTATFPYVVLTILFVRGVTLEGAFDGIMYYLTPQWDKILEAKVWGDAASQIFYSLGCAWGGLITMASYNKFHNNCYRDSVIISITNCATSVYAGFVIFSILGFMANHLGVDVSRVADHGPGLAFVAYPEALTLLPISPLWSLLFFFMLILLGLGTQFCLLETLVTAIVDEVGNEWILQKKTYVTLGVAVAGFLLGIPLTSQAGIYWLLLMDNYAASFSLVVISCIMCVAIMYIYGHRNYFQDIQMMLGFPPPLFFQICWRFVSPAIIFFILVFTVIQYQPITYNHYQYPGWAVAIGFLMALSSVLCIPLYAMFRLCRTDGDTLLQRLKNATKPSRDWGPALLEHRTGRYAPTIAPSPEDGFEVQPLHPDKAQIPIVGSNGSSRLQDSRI
# Assay: Glycine Transporter 1 (GlyT1) Uptake Assay, in vitro
# Assay type: cell-based
# Conditions: inhibition of [14C] glycine uptake (5 μM) in JAR cells endogenously expressing GlyT1; approximate values
# Description: This cell-based assay measures the ability of test compounds to inhibit the uptake of glycine by the glycine transporter type 1. Human placental choriocarcinoma (JAR) cells endogenously expressing human glycine transporter type 1 (Gly-T1) were used for this assay. For uptake assays, JAR cells were cultured in 96-well cytostar T scintillating microplates (Amersham Biosciences) in RPMI 1640 medium containing 10% fetal bovine serum in the presence of penicillin (100 μg/ml) and streptomycin (100 μg/ml). Cells were plated at a density of 4×10^4 cells/well and grown at 37° C. in a humidified atmosphere of 5% CO2 for 24 h.
# Culture medium was removed from Cytostar plate and JAR cells were incubated with 30 μl of Uptake buffer (120 mM NaCl, 2 mM KCl, 1 mM CaCl2, 1 mM MgCl2, 10 mM Hepes, 5 mM alanine, pH 7.5) with or without compound for 5 min. Then 30 μl of [^14C] glycine (101 mCi/mmol, obtained from Perkin Elmer) diluted in Uptake buffer was added to each well to give a final concentration of 5 μM. After incubation at room temperature for the desired time usually 1-2 h, sealed 96-well Cytostar plates were counted on a TopCount (Packard). Nonspecific uptake of [^14C] glycine was determined in the presence of 10 μM cold ALX-5407 (Sigma).
# IC50 curves were generated from the raw data collected from the TopCount and fitted with a four-parameter logistic equation using in-house data analysis tool, Activity Base.
row,IC50 [nM],Compound
1,1010,"C[C@@H]1CN(C2CCc3ccc(Br)cc32)CCN1CC(=O)O (stereo partly drawn) [Cpd I-3, 2-((R)-4-(6-bromo-2,3-dihydro-1H-inden-1-yl)-2-methyl-piperazin-1-yl)acetic acid]"
2,52,"CC1CC(C(c2ccccc2)c2ccccc2)CCN1CC(=O)O (centres unmarked) [Cpd I-15, 2-(4-benzhydryl-2-methyl-piperidin-1-yl)acetic acid]"
3,953,"C[C@@H]1CN(c2cccc3ccccc23)CCN1CC(=O)O [Cpd I-10, (R)-2-(2-methyl-4-naphth-1-ylpiperazin-1-yl)acetic acid]"
4,296,"O=C(O)CN1CCCC(N(c2ccccc2)c2ccc(C(F)(F)F)cc2)C1 (centres unmarked) [Cpd II-3, 2-(3-(phenyl(4-(trifluoromethyl)-phenyl)amino)piperidin-1-yl)acetic acid]"
5,5320,"O=C(O)CN1CCC(C2c3ccccc3Oc3ccccc32)CC1 [Cpd I-30, 2-(4-(9H-xanthen-9-yl)piperidin-1-yl)acetic acid]"
6,18,"O=C(O)CN1CCC(N(c2ccccc2)c2ccc(C(F)(F)F)cc2)C1 (centres unmarked) [Cpd II-5, 2-(3-(phenyl(4-(trifluoromethyl)-phenyl)amino)pyrrolidin-1-yl)acetic acid]"
7,> 10000,"O=C(O)CN1CCC(C2c3ccccc3-c3ccccc32)CC1 [Cpd I-28, 2-(4-(9H-fluoren-9-yl)piperidin-1-yl)acetic acid]"
8,687,"C[C@@H]1CN(c2c3ccccc3cc3ccccc23)CCN1CC(=O)O [Cpd I-12, (R)-2-(4-anthracen-9-yl-2-methyl-piperazin-1-yl)acetic acid]"
9,147,C[C@@H]1CN(C2c3ccccc3CCc3ccccc32)CCN1CC(=O)O [Cpd I-5]
10,1130,"C[C@@H]1CN(C2CCCCC2c2ccccc2)CCN1CC(=O)O (stereo partly drawn) [Cpd I-6, 2-((R)-2-methyl-4-(2-phenylcyclohexyl)-piperazin-1-yl)acetic acid dihydrochloride]"
11,258,"C[C@@H]1CN(C2CCCCc3ccccc32)CCN1CC(=O)O (stereo partly drawn) [Cpd I-1, 2-((R)-2-methyl-4-(6,7,8,9-tetrahydro-5H-benzo[7]annulen-5-yl)-piperazin-1-yl)acetic acid]"
12,> 2000,"O=C(O)CN1CCCC(N(c2ccccc2)c2cccc(C(F)(F)F)c2)C1 (centres unmarked) [Cpd II-4, 2-(3-(phenyl(3-(trifluoromethyl)-phenyl)amino)piperidin-1-yl)acetic acid]"
13,> 10000,"O=C(O)CN1CCN(c2c3ccccc3cc3ccccc23)CC1 [Cpd I-11, 2-(4-anthracen-9-ylpiperazin-1-yl)acetic acid]"
14,14,"O=C(O)CN1CCC(N(c2ccccc2)c2cccc(-c3cccnc3)c2)C1 (centres unmarked) [Cpd II-10, 2-(3-(phenyl(3-(pyridin-3-yl)-phenyl)amino)pyrrolidin-1-yl)acetic acid]"

row,Compound,IC50 [nM]
1,"O=C(O)CN1CCC(C(c2ccccc2)c2ccccc2)CC1 [Cpd I-8, 2-(4-benzhydrylpiperidin-1-yl)acetic acid]",536
2,"O=C(O)CN1CCCC(C(c2ccccc2)c2ccc(C(F)(F)F)cc2)C1 (centres unmarked) [Cpd II-1, 2-(3-(phenyl(4-(trifluoromethyl)-phenyl)methyl)piperidin-1-yl)acetic acid]",562
3,"O=C(O)CN1CCC(N(c2ccccc2)c2ccc(C(F)(F)F)cc2)CC1 [Cpd I-22, 2-(4-(phenyl(4-(trifluoromethyl)phenyl)-amino)piperidin-1-yl)acetic acid]",129
4,"C[C@@H]1CN(C2(c3ccccc3)CCCCC2)CCN1CC(=O)O [Cpd I-14, (R)-2-(2-methyl-4-(1-phenyl-cyclohexyl)-piperazin-1-yl)acetic acid]",1530
5,"C[C@@H]1CN(C2(c3ccc(Cl)cc3)CCCCC2)CCN1CC(=O)O [Cpd I-26, (R)-2-(4-(1-(4-chlorophenyl)cyclohexyl)-2-methylpiperazin-1-yl)acetic acid]",101
6,"O=C(O)CN1CCN(c2cccc3ccccc23)CC1 [Cpd I-9, 2-(4-naphth-1-ylpiperazin-1-yl)acetic acid]",> 10000
7,"O=C(O)CN1CCC(C(c2ccccc2)c2ccccc2C(F)(F)F)CC1 (centres unmarked) [Cpd I-16, 2-(4-(phenyl(2-(trifluoromethyl)-phenyl)-methyl)piperidin-1-yl)acetic acid]",3520
8,"O=C(O)CN1CCN(C2(c3ccccc3)CCCCC2)CC1 [Cpd I-13, 2-(4-(1-phenylcyclohexyl)piperazin-1-yl)acetic acid]",> 10000
9,"O=C(O)CN1CCC(N(c2ccccc2)c2cccc(C(F)(F)F)c2)CC1 [Cpd I-7, 2-(4-(phenyl(3-(trifluoromethyl)-phenyl)amino)piperidin-1-yl)-acetic acid]",393
